Assays:
rabbit GLP-1R = biological target: T1, rabbit GLP-1R (Oryctolagus cuniculus, UniProt G1SGD4); test: Agonistic activity on GLP-1R of different species (LANCE Ultra cAMP assay): rabbit; format: cell-based; details: ratio of EC50 value of other species to human EC50 value
T1 construct: expressed in transfected cells
T1 sequence (G1SGD4 24-462): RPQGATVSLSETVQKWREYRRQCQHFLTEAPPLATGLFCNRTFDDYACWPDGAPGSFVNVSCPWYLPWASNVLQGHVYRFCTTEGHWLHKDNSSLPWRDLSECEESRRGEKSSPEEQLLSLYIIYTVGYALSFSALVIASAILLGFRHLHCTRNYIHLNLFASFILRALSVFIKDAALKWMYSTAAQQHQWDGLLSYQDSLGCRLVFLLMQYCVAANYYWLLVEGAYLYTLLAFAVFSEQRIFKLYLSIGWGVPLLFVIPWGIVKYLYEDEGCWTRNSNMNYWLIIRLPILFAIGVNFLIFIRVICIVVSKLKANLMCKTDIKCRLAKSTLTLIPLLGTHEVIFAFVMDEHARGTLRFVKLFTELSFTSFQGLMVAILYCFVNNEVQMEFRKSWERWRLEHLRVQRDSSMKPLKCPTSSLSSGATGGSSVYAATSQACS
Experimental: (§1) The in vitro agonistic activity of the compound of the present invention on GLP-1R was measured in cells stably expressing human, dog, mouse, rat, rabbit, and monkey GLP-1R (human GLP-1R-HEK, dog GLP-1R-HEK, mouse GLP-1R-HEK, rat GLP-1R- in HEK, rabbit GLP-1R-CHO, monkey GLP-1R-HEK cells). Human GLP-1R-HEK, dog GLP-1R-HEK, mouse GLP-1R-HEK, rat GLP-1R-HEK, rabbit GLP-1R-CHO, and monkey GLP-1R-HEK cells were resuspended in 1×Casein Stimulation Buffer (HBSS, 5 mM HEPES, 0.5 mM IBMX, 0.1% casein, pH7.4), and seeded into a 384-well cell culture plate at 9 µL/well (cell numbers being 1000, 1000, 1000, 1500, 1000, 1000 cells/well, respectively). 1 µL of 1×Casein Stimulation Buffer containing 10× compound was added to the above-mentioned 384-well cell culture plate. The plate was incubated at 37 °C for 30 minutes. After the incubation was completed, 5 µL of Eu-cAMP working solution and 5 µL of Ulight^TM-cAMP working solution were added sequentially, centrifuged and then incubated at room temperature for 1 hour. The readings at 665 nm and 620 nm were determined with a 330 nm excitation light on a microplate reader. The 665 nm/620 nm reading ratio was calculated. […] GraphPad was used to perform nonlinear regression according to the response percentage and the concentration of the compound added to obtain the EC50 value for each compound.

monkey GLP-1R = test: Agonistic activity on GLP-1R of different species (LANCE Ultra cAMP assay): monkey; format: cell-based; details: ratio of EC50 value of other species to human EC50 value
Experimental: as §1

mouse GIPR = biological target: T2, mouse GIPR (Mus musculus, UniProt Q0P543); test: Agonistic activity on GIPR of different species (LANCE Ultra cAMP assay): mouse; format: cell-based; details: ratio of EC50 value of other species to human EC50 value
T2 construct: expressed in transfected cells; host or cells: CHO-K1 (transient)
T2 sequence (Q0P543 19-460): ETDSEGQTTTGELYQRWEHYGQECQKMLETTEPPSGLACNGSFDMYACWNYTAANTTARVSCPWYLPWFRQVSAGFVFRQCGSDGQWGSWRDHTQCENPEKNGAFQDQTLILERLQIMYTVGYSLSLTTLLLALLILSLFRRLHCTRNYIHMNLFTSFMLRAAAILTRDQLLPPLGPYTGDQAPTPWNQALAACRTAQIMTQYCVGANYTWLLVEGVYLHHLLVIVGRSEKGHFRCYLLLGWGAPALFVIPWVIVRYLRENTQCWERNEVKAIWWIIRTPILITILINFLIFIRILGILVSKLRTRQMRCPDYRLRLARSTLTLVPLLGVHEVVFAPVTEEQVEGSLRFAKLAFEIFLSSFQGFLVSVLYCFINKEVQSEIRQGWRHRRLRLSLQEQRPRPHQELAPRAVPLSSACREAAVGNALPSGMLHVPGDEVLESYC

rat GIPR = biological target: T3, rat GIPR (Rattus norvegicus, UniProt P43219); test: Agonistic activity on GIPR of different species (LANCE Ultra cAMP assay): rat; format: cell-based; details: ratio of EC50 value of other species to human EC50 value
T3 construct: expressed in transfected cells; host or cells: CHO-K1 (transient)
T3 sequence (P43219 19-455): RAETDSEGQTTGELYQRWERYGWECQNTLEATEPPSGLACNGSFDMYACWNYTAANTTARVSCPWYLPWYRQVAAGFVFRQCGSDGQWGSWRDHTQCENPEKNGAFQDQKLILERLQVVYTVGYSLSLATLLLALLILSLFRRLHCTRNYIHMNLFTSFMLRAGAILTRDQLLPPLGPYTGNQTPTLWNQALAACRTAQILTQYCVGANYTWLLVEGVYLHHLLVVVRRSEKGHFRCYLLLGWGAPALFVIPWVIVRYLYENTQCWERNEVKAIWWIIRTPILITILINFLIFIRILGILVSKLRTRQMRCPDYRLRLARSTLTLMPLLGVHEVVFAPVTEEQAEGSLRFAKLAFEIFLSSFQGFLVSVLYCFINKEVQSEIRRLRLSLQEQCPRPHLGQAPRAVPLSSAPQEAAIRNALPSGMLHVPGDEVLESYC

obese cats = test: Weight loss efficacy in obese cats; format: in vivo; details: s.c. QW escalating doses
Experimental: This study evaluated the weight loss efficacy of the compound of this invention through multiple subcutaneous administrations to obese cats, with changes in cat body weights being monitored. The study involved cats aged 8 months or older with a body condition score (BCS) of ≥6. […] G11 (control group), G12, G13, and […]. . Group G11 served as the vehicle control group. […] The animals' body weights were measured at a fixed time every 7 days after administration, and food intake was measured once per day. Blood tests for routine and biochemical parameters were conducted before grouping and on […]. Body condition score (BCS), feline body mass index (FBMI), and abdominal circumference (AC) were measured once a week. The data were statistically analyzed using ANOVA. If ANOVA yielded statistical significance (p < 0.05) and the variances were homogeneous, Tukey's test was used for intergroup comparisons. If the variances were heterogeneous, Dunnett's T3 test was used. Results are presented as means and standard errors of the mean (Mean ± SEM). The significance level was set at 0.05, and both statistical and biological significance were considered in the analysis.

human GLP-1R = human GLP-1R (Homo sapiens, UniProt P43220); test: Agonistic activity on GLP-1R of different species (LANCE Ultra cAMP assay): human; format: cell-based; parameters: expressed in transfected cells; host or cells: HEK293/CRE/GLP-1R clonal cells; details: ratio of EC50 value of other species to human EC50 value
Sequence of human GLP-1R (P43220 24-463): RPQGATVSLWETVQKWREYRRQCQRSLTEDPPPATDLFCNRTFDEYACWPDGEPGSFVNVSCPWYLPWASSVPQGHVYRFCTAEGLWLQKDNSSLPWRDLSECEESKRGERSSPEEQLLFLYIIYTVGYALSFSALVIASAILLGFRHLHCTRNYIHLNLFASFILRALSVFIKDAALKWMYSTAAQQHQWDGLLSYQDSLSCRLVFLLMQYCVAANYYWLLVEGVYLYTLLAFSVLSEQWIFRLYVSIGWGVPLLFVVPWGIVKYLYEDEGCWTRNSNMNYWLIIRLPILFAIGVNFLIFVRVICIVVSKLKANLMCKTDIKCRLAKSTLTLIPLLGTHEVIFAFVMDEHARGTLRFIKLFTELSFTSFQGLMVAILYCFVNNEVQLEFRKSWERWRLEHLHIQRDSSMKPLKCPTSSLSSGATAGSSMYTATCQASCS

CC[C@H](C)[C@H](NC(=O)C(C)(C)NC(=O)[C@H](Cc1ccc(O)cc1)NC(=O)[C@H](CC(=O)O)NC(=O)[C@H](CO)NC(=O)[C@@H](NC(=O)C(C)(Cc1ccccc1)NC(=O)[C@@H](NC(=O)CNC(=O)[C@H](CCC(=O)O)NC(=O)C(C)(C)NC(=O)[C@@H](N)Cc1ccc(O)cc1)[C@@H](C)O)[C@@H](C)O)C(=O)NC(C)(C)C(=O)N[C@@H](CC(C)C)C(=O)N[C@@H](CC(=O)O)C(=O)N[C@@H](CCCCN)C(=O)N[C@@H](CCC(N)=O)C(=O)N[C@@H](C)C(=O)N[C@@H](CCC(N)=O)C(=O)N[C@@H](C)C(=O)N[C@@H](CCC(=O)O)C(=O)N[C@@H](Cc1ccccc1)C(=O)N[C@H](C(=O)N[C@@H](CCCCNC(=O)COCCOCCNC(=O)COCCOCCNC(=O)COCCOCCNC(=O)CC[C@H](NC(=O)CCCCCCCCCCCCCCCCCCCCC(=O)O)C(=O)O)C(=O)N[C@@H](Cc1c[nH]c2ccccc12)C(=O)N[C@@H](CC(C)C)C(=O)N[C@@H](CC(C)C)C(=O)N[C@@H](CCCCN)C(=O)NCC(=O)NCC(=O)N1CCC[C@H]1C(=O)N[C@@H](CO)C(=O)N[C@@H](CO)C(=O)NCC(=O)N[C@@H](C)C(=O)N1CCC[C@H]1C(=O)N1CCC[C@H]1C(=O)N1CCC[C@H]1C(=O)N[C@@H](CO)C(=O)N[C@@H](CCCCN)C(N)=O)C(C)C (some centres unmarked) [Compound P016]
GLP-1R EC50 ratio (rabbit GLP-1R): 1.05
GLP-1R EC50 ratio (monkey GLP-1R): 2.66
GIPR EC50 ratio (mouse GIPR): 12.49
GIPR EC50 ratio (rat GIPR): 2.22
effective dose for weight loss (obese cats): 96 nmol/kg
effective dose for weight loss (obese cats; equivalent of the nmol/kg dose): 0.5 mg/kg
maximum weight loss (obese cats; five administrations): 19.45%
GLP-1R EC50 ratio (human GLP-1R): 1.00

— patent EP4813403A1, “USE OF GLP-1R/GIPR DOUBLE-TARGET AGONIST IN PREPARING ANIMAL DRUG” (Hangzhou Zhongmeihuadong Pharmaceutical Co., Ltd., priority 2023, dated 2025)
